Tests used:
Cdc7/Dbf4 = Cdc7/Dbf4 (Homo sapiens, UniProt O00311); assay: Cdc7 biochemical assay Method 2: Cdc7/Dbf4 Enzyme TR-FRET Assay measuring pS40MCM2; conditions: pS40 MCM2 peptide, 1 μM ATP, 25° C., 120 minutes, read-out: Biochemical Method 2 (pIC50) (converted)
Procedure: This protocol describes a method for assaying a compounds' ability to inhibit Cdc7 activity by measuring pS40MCM2 levels in a Cdc7/Dbf4 Enzyme TR-FRET Assay.
2.5 nM Cdc7/Dbf4 was incubated with 100 nM of biotin-labelled peptide 35-TDALTS(pS)PGRDLP in the presence of 1 μM ATP at 25° C. for 120 minutes. The phosphorylation of the peptide was detected using TR-FRET. Anti-Mcm2 (pS40) antibody, Terbium anti-rabbit secondary antibody and Streptavidin-Alexa Fluor488 form the detection system.

Cdc7 [1] = biological target: T1, Cdc7 (Homo sapiens, UniProt O00311); assay: Cdc7 cell pharmacodynamics assay Method 2: pS40MCM2 levels in HCT116 cells; format: cell-based; design: endogenous in cells; conditions: 18 hours treatment, read-out: Biomarker Method 2 (pEC50) (converted)
Text: This protocol describes a method to investigate the inhibition of Cdc7 activity by measuring pS40MCM2 levels in cells, after treatment with compounds.
• HCT116 cells (ATCC, #CCL-247) • McCoys 5A with L-glutamine (Cellgro, #10-050-CV) • 10% FCS (Cellgro, #35-010-CV) • D-PBS without CaCl2 and MgCl2 (Cellgro, #21-031-CV) • Trypsin/EDTA (Cellgro, #25-052-CL) • BSA (Calbiochem, 126593) • Cell Extraction Buffer (Invitrogen FNN0011) • Protease inhibitor cocktail (Sigma P-2714) • PMSF 0.3M stock in DMSO (Sigma P7626) • Antibody—rabbit pMCM2 Ser40 (Abeam, AB133243) • Antibody—goat MCM2 (Bethyl #A300-122A) • Antibody—goat Anti Rabbit IgG HRP (Thermo, 31462) • SuperSignal ELISA Pico Chemiluminescent Substrate (Perbio Science UK Ltd 37069) • 10×PBS (Growcells, MRGF-6236) • Triton X100 (Sigma, P-T8787) • DMSO (Fisher, D128-1) • 2-Propanol (J. T. Baker, 9095-03) Method • Seed 1×10^6 HCT116 cells into each of two 175 cm^2 flask containing 30 mL Cell Growth Media and incubate at 37° C., 5% CO2 for 3 days. • Harvest the cells from one T175 cm^2 flask and count. • Dilute with Cell Growth Media to a cell density of 2×10^5. Dispense 100 μL to each well (20,000 HCT116 cells/well) of TC treated 96-well plate(s). • Allow cells to settle overnight in incubator set at 37° C. and 5% CO2. • Cell treatment: Transfer 0.25 μL/well from the compound plate to the wells of the cell plate(s). This is a 1:400 dilution of compound in the assay. • Once all cells are treated place the cells back to the incubator and incubate for 18 hours. • Dilute the capture antibody (total MCM2 #A300-122A) 1 in 250 in the required volume of PBS (5 mL per assay plate, plus 5 mL for dead volume) and add 50 μL to each well of a Hybond plate except wells A12 & B12. Seal the plate and incubate at room temperature fora minimum of 2 hours. • Defrost aliquot of Invitrogen Cell Extraction Buffer (FNN0011) on ice and supplement with appropriate volume of both Sigma protease inhibitor cocktail (P-2714) and PMSF (final cone 1 mM from a 1 M stock in DMSO). • After the 6 hour or 18 hour cell treatment time, tap out the media from the assay plates and place them in the −70° C. freezer for at least 5 minutes. • Flick out the remaining liquid in the previously prepared capture Ab plate(s) and add 200 μL 2% BSA per well. Incubate for 1 hour at room temperature. • Remove plates from freezer and add 20 μL of ice cold complete lysis buffer. Incubate cells for 30 minutes at 4° C. • Add 30 μL per well 2% BSA • At the end of the 1 hour incubation, wash the Capture/ELISA plate(s) with Wash Buffer on the BioTek plate washer. • Transfer 40 μL per well of the lysis plate(s) to the same wells in the Capture/ELISA plate. Incubate cells overnight at 4° C. • At the end of the overnight incubation, wash the ELISA plate(s) with Wash Buffer on BioTek plate washer. • Prepare Detection Antibody Buffer and dispense 50 μL to all wells of ELISA plate(s) except wells G1 & H1. Cover plate and incubate at room temperature for 2 hours with gentle shaking. • At the end of the 2 hour incubation, wash the ELISA plate(s) with Wash Buffer on the BioTek plate washer. • Prepare the Conjugated Antibody Buffer and dispense 50 μL to all wells of ELISA plate(s). • Cover the plate and incubate at room temperature for 1 hour with gentle shaking. • At the end of the 1 hour incubation, wash the ELISA plate(s) with Wash Buffer on the BioTek plate washer. • Prepare Substrate Buffer and dispense 50 μL to all wells of ELISA plate(s). • Incubate for a minimum of 10 minutes and read plates on the EnVision 2100 Multilabel Reader (Mirror: Luminescence (404) & Luminescence 700 (212); Measurement Height: 6.5 mm; Measurement Time: 0.2 s). Method 3

Cdc7 [2] = biological target: T1, Cdc7; assay: Cdc7 cell pharmacodynamics assay Method 3: pS53MCM2 levels in SW48 cells; format: cell-based; design: endogenous in cells; host or cells: SW48; conditions: 6 hours treatment, read-out: Biomarker Method 3 (pEC50) (converted)
Text: This protocol describes a method to investigate the inhibition of Cdc7 activity by measuring pS53MCM2 levels in cells, after treatment with compounds.
• SW48 cells • RPMI 1640 (Sigma, R5886) • 10% FCS (Sera Laboratories International Ltd, EU000F Batch: 108005) • 100× L-Glutamine (Invitrogen, 25030-024) • D-Glucose Solution (10%) (Sigma, G8644) • HEPES Buffer Solution (Sigma, 83264) • Sodium Pyruvate (Sigma, S8636) • PBS (Fisger, BP399-4) • Trypsin/EDTA (Invitrogen 25300-054) • 2% BSA in PBS • Cell Extraction Buffer (Invitrogen FNN0011) • Protease inhibitor cocktail (Sigma P-2714) • PMSF 0.3M stock in DMSO (Sigma P7626) • Antibody—rabbit pMCM2 Ser53 (Bethyl #A300-756A) • Antibody—goat MCM2 (Bethyl #A300-122A) • Antibody—goat Anti Rabbit IgG HRP (Perbio Science UK Ltd 31462) • SuperSignal ELISA Pico Chemiluminescent Substrate (Perbio Science UK Ltd 37070) Method • Plate 30,000 SW48 cells per well in standard TC treated 96 well plate in 100 μL complete RPMI 1640 medium. • Allow cells to settle overnight in incubator set at 37° C. and 5% CO2. • Cell treatment: prepare a 384 well plate containing 80 μl PBS/well. The PBS should be at room temperature—to be referred to as intermediate plate. Transfer 2 μL of compound from mother plate to intermediate (daughter plate) 1:40 dilution, then 5 μL intermediate to cell (daughter) plate. • Once all cells are treated place the cells back to the incubator and incubate for 6 hours. • Dilute the capture antibody (total MCM2 #A300-122A) 1 in 250 in the required volume of PBS (5 mL per assay plate, plus 5 mL for dead volume) and add 50 μL to each well of a Hybond plate. Seal the plate and incubate at room temperature for a minimum of 2 hours. • Defrost aliquot of Invitrogen Cell Extraction Buffer (FNN0011) on ice and supplement with appropriate volume of both Sigma protease inhibitor cocktail (P-2714) and PMSF (final cone 1 mM from a 1 M stock in DMSO). • After the 6 hour cell treatment time, tap out the media from the assay plates and place them in the −80° C. freezer for at least 5 minutes. • Remove plates from freezer and add 20 μL of ice cold complete lysis buffer, with the multidrop. Incubate cells for 30 minutes at 4° C. • Add 80 μL per well 2% BSA. • Flick out the remaining liquid from the capture plate and transfer 80 μL from the lysis plate to the same wells in the capture/ELISA plate, using the Biomek. Cover with plate seal and incubate plates overnight at 4° C. • Wash plates with PBS, remove any residual remaining liquid and add 50 μL per well of pMCM2 Ser53 antibody (#A300-756A) diluted 1 in 100 in 2% BSA. Cover plate and incubate at room temperature for 2 hours with gentle shaking. • Wash plates with PBS, remove any residual remaining liquid and Incubate with 50 μL goat anti rabbit antibody (1 in 800 dilution in 2% BSA), for 1 hour at room temperature. • Wash plates with PBS, remove any residual remaining liquid and add 50 μL mixed SuperSignal Pico substrate. • Incubate each plate for 5 minutes at room temperature shielding the plates from direct light (with a cover plate). Read plates with the luminescent detection. Results

T1 sequence (O00311 whole entry): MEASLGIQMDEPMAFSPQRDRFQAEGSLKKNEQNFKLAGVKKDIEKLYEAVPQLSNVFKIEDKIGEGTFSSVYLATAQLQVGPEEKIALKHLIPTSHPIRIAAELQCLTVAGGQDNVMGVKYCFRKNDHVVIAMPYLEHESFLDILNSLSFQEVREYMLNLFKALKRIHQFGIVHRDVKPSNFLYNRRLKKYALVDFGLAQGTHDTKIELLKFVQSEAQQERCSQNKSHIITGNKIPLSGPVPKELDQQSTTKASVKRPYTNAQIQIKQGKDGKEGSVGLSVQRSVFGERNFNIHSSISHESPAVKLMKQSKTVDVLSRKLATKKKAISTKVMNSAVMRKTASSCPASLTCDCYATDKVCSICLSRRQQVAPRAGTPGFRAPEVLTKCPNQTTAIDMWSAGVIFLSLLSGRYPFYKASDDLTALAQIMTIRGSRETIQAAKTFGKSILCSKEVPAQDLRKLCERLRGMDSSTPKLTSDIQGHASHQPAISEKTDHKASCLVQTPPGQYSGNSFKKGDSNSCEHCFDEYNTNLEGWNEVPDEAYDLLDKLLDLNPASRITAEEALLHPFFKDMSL
T1 sequence (Q9UBU7 whole entry partner): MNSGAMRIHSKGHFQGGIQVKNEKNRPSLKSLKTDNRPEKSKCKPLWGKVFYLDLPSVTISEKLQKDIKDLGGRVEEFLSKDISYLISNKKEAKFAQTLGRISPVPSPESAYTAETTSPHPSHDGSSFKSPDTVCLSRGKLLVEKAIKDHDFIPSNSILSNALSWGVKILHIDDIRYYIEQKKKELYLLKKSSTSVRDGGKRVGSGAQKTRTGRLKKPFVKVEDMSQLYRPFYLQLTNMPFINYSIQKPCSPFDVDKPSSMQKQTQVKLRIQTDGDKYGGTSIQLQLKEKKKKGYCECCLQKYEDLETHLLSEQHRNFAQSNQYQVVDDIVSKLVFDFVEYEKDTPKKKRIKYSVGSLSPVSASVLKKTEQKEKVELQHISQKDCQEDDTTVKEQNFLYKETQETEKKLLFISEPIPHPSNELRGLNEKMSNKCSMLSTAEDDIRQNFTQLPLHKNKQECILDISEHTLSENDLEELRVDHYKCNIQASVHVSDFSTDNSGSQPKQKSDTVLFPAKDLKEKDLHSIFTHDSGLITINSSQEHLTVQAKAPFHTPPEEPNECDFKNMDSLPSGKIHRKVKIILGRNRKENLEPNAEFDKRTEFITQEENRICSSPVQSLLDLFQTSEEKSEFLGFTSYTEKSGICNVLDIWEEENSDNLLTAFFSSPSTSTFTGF
Chain of Cdc7/Dbf4 (O00311 whole entry): as the sequence (O00311 whole entry) above
Chain of Cdc7/Dbf4 (Q9UBU7 whole entry partner): as the sequence (Q9UBU7 whole entry partner) above

| SMILES | IC50 (Cdc7/Dbf4) | EC50 (Cdc7 [1]) | EC50 (Cdc7 [2]) |
| --- | --- | --- | --- |
| Cc1[nH]ncc1-c1nc(N2CCNC[C@H]2C)c(Cl)c(=O)[nH]1 [Compound 48, 5-chloro-4-[(2R)-2-methylpiperazin-1-yl]-2-(5-methyl-1H-pyrazol-4-yl)-1H-pyrimidin-6-one] | 2.24 nM | 457 nM | – |
| CC1(C)CNCCN1c1nc(-c2cn[nH]c2C(F)(F)F)[nH]c(=O)c1Cl [Compound 46, 5-chloro-4-(2,2-dimethylpiperazin-1-yl)-2-[5-(trifluoromethyl)-1H-pyrazol-4-yl]-1H-pyrimidin-6-one] | 1.66 nM | 151 nM | – |
| O=c1[nH]c(-c2cn[nH]c2C(F)(F)F)nc(N2CCNCC(F)(F)C2)c1Cl [Compound 45, 5-chloro-4-(6,6-difluoro-1,4-diazepan-1-yl)-2-[5-(trifluoromethyl)-1H-pyrazol-4-yl]-1H-pyrimidin-6-one] | 1.95 nM | 44.7 nM | 1170 nM |
| C[C@@H]1COCCN1c1nc(-c2c[nH]c3ncccc23)[nH]c(=O)c1Cl [Compound 53, 5-chloro-4-[(3R)-3-methylmorpholin-4-yl]-2-(1H-pyrrolo[2,3-b]pyridin-3-yl)-1H-pyrimidin-6-one] | 1.29 nM | 33.1 nM | 955 nM |
| O=c1[nH]c(-c2c[nH]c3ncccc23)nc(N2CCNCC(F)(F)C2)c1Cl [Compound 52, 5-chloro-4-(6,6-difluoro-1,4-diazepan-1-yl)-2-(1H-pyrrolo[2,3-b]pyridin-3-yl)-1H-pyrimidin-6-one] | 7.08 nM | 851 nM | 5750 nM |
| O=c1[nH]c(-c2cn[nH]c2C(F)(F)F)nc(N2CCOCC2)c1Cl [Compound 47, 5-chloro-4-morpholino-2-[5-(trifluoromethyl)-1H-pyrazol-4-yl]-1H-pyrimidin-6-one] | 0.776 nM | 38 nM | 1170 nM |
